Test results published in patent US20060281700A1, “SYNERGISTIC MODULATION OF FLT3 KINASE USING AMINOPYRIMIDINES KINASE MODULATORS” (priority 2005, published 2006).

Biological target: T1, wild-type FLT3 phosphorylation in Baf3 FLT3 cells (Homo sapiens, UniProt P36888)
T1 sequence (P36888 27-993): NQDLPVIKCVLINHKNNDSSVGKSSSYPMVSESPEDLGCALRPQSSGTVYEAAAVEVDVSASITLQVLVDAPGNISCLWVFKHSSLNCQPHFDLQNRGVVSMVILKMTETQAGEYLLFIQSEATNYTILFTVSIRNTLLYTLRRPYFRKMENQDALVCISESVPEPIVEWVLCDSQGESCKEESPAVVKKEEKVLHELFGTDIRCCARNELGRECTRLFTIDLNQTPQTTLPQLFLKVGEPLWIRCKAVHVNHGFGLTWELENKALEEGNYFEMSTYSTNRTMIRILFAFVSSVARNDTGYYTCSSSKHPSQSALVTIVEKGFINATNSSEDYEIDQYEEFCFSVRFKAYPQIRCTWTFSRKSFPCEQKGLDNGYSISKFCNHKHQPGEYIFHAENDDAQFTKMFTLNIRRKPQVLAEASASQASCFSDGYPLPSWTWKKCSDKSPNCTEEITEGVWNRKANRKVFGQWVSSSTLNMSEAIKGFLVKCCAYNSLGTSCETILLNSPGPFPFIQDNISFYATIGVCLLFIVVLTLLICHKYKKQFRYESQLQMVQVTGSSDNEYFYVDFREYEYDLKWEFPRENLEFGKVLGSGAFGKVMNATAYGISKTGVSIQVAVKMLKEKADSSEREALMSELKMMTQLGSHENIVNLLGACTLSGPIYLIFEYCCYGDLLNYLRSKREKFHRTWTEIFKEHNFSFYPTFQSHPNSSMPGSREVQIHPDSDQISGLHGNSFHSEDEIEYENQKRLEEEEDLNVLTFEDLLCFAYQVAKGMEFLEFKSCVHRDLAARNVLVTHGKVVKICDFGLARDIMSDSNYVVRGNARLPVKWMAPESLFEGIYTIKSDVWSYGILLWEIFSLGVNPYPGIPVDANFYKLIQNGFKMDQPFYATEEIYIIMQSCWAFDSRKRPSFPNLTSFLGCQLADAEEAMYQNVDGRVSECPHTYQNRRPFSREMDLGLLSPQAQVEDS
Experiment: Cell-Based FLT3 Receptor Elisa
Conditions: 1 hour compound, 100 ng/mL Flt ligand 10 min; uncertainty ±20%
Experimental: Cell-Based FLT3 Receptor Elisa
Specific cellular inhibition of FLT ligand-induced wild-type FLT3 phosphorylation was measured in the following manner: Baf3 FLT3 cells overexpressing the FLT3 receptor were obtained from Dr. Michael Heinrich (Oregon Health and Sciences University). The Baf3 FLT3 cell lines were created by stable transfection of parental Baf3 cells (a murine B cell lymphoma line dependent on the cytokine IL-3 for growth) with wild-type FLT3. Cells were selected for their ability to grow in the absence of IL-3 and in the presence of FLT3 ligand.
Baf3 cells were maintained in RPMI 1640 with 10% FBS, penn/strep and 10 ng/ml FLT ligand at 37° C., 5% CO2. To measure direct inhibition of the wild-type FLT3 receptor activity and phosphorylation a sandwich ELISA method was developed similar to those developed for other RTKs (see Sadick, M D, Sliwkowski, M X, Nuijens, A, Bald, L, Chiang, N, Lofgren, J A, Wong W L T. Analysis of Heregulin-Induced ErbB2 Phosphorylation with a High-Throughput Kinase Receptor Activation Enzyme-Linked Immunsorbent Assay, Analytical Biochemistry. 1996; 235:207-214 and Baumann C A, Zeng L, Donatelli R R, Maroney A C. Development of a quantitative, high-throughput cell-based enzyme-linked immunosorbent assay for detection of colony-stimulating factor-1 receptor tyrosine kinase inhibitors. J Biochem Biophys Methods. 2004; 60:69-79.). 200 μL of Baf3FLT3 cells (1×10^6/mL) were plated in 96 well dishes in RPMI 1640 with 0.5% serum and 0.01 ng/mL IL-3 for 16 hours prior to 1 hour compound or DMSO vehicle incubation. Cells were treated with 100 ng/mL Flt ligand (R&D Systems Cat# 308-FK) for 10 min. at 37° C. Cells were pelleted, washed and lysed in 100 ul lysis buffer (50 mM Hepes, 150 mM NaCl, 10% Glycerol, 1% Triton-X-100, 10 mM NaF, 1 mM EDTA, 1.5 mM MgCl2, 10 mM NaPyrophosphate) supplemented with phosphatase (Sigma Cat# P2850) and protease inhibitors (Sigma Cat #P8340). Lysates were cleared by centrifugation at 1000×g for 5 minutes at 4° C. Cell lysates were transferred to white wall 96 well microtiter (Costar #9018) plates coated with 50 ng/well anti-FLT3 antibody (Santa Cruz Cat# sc-480) and blocked with SeaBlock reagent (Pierce Cat#37527). Lysates were incubated at 4° C. for 2 hours. Plates were washed 3× with 200 ul/well PBS/0.1% Triton-X-100. Plates were then incubated with 1:8000 dilution of HRP-conjugated anti-phosphotyrosine antibody (Clone 4G10, Upstate Biotechnology Cat#16-105) for 1 hour at room temperature. Plates were washed 3× with 200 ul/well PBS/0.1% Triton-X-100. Signal detection with Super Signal Pico reagent (Pierce Cat#37070) was done according to manufacturer's instruction with a Berthold microplate luminometer. All data points are an average of triplicate samples. […] Inhibition and IC50 data analysis was done with GraphPad Prism using a non-linear regression fit with a multiparamater, sigmoidal dose-response (variable slope) equation.

| Compound | IC50 |
| --- | --- |
| CO/N=C/c1c(N)ncnc1N1CCC(OC(=O)Nc2ccc(OC(C)C)cc2)CC1 [Number 1, (4-Isopropoxy-phenyl)-carbamic acid 1-[6-amino-5-(methoxyimino-methyl)-pyrimidin-4-yl]-piperidin-4-yl ester] | 204 nM |
| CCO/N=C/c1c(N)ncnc1N1CCC(OC(=O)Nc2ccc(OC(C)C)cc2)CC1 [Number 2, (4-Isopropoxy-phenyl)-carbamic acid 1-[6-amino-5-(ethoxyimino-methyl)-pyrimidin-4-yl]-piperidin-4-yl ester] | 74 nM |
| CC(C)Oc1ccc(NC(=O)OC2CCN(c3ncnc(N)c3/C=N/OCCCN(C)C)CC2)cc1 [Number 4, (4-Isopropoxy-phenyl)-carbamic acid 1-{6-amino-5-[(3-dimethylamino-propoxyimino)-methyl]-pyrimidin-4-yl}-piperidin-4-yl ester] | 345 nM |
| CO/N=C/c1c(N)ncnc1N1CCC(OC(=O)Nc2ccc(C(C)C)cc2)CC1 [Number 5, (4-Isopropyl-phenyl)-carbamic acid 1-[6-amino-5-(methoxyimino-methyl)-pyrimidin-4-yl]-piperidin-4-yl ester] | 4 nM |
| CO/N=C/c1c(N)ncnc1N1CCC(CC(=O)Nc2ccc(C(C)C)cc2)C1 (centres unmarked) [Number 6, 2-{1-[6-Amino-5-(methoxyimino-methyl)-pyrimidin-4-yl]-pyrrolidin-3-yl}-N-(4-isopropyl-phenyl)-acetamide] | 15 nM |
| CO/N=C/c1c(N)ncnc1N1CCC(CC(=O)Nc2ccc(C(C)C)cc2)CC1 [Number 7, 2-{1-[6-Amino-5-(methoxyimino-methyl)-pyrimidin-4-yl]-piperidin-4-yl}-N-(4-isopropyl-phenyl)-acetamide] | 169 nM |
| CO/N=C/c1c(N)ncnc1N1CCC(NC(=O)Nc2ccc(OC(C)C)cc2)C1 (centres unmarked) [Number 8, 1-{1-[6-Amino-5-(methoxyimino-methyl)-pyrimidin-4-yl]-pyrrolidin-3-yl}-3-(4-isopropoxy-phenyl)-urea] | 176 nM |
| CO/N=C/c1c(N)ncnc1N1CCC(NC(=O)Nc2ccc(N3CCCCC3)cc2)C1 (centres unmarked) [Number 9, 1-{1-[6-Amino-5-(methoxyimino-methyl)-pyrimidin-4-yl]-pyrrolidin-3-yl}-3-(4-piperidin-1-yl-phenyl)-urea] | 127 nM |
| CO/N=C/c1c(N)ncnc1N1CCC(NC(=O)Nc2ccc(N3CCOCC3)cc2)C1 (centres unmarked) [Number 10, 1-{1-[6-Amino-5-(methoxyimino-methyl)-pyrimidin-4-yl]-pyrrolidin-3-yl}-3-(4-morpholin-4-yl-phenyl)-urea] | 1300 nM |
| CO/N=C/c1c(N)ncnc1N1CCC(NC(=O)Nc2ccc(OC3CCC3)nc2)C1 (centres unmarked) [Number 11, 1-{1-[6-Amino-5-(methoxyimino-methyl)-pyrimidin-4-yl]-pyrrolidin-3-yl}-3-(6-cyclobutoxy-pyridin-3-yl)-urea] | 229 nM |
| CO/N=C/c1c(N)ncnc1N1CCC(NC(=O)Nc2ccc(OC(C)C)cc2)CC1 [Number 12, 1-{1-[6-Amino-5-(methoxyimino-methyl)-pyrimidin-4-yl]-piperidin-4-yl}-3-(4-isopropoxy-phenyl)-urea] | 217 nM |
| CO/N=C/c1c(N)ncnc1N1CCC(NC(=O)Nc2ccc(N3CCCCC3)cc2)CC1 [Number 13, 1-{1-[6-Amino-5-(methoxyimino-methyl)-pyrimidin-4-yl]-piperidin-4-yl}-3-(4-piperidin-1-yl-phenyl)-urea] | 468 nM |
| CO/N=C/c1c(N)ncnc1N1CCC(NC(=O)Nc2ccc(N3CCOCC3)cc2)CC1 [Number 14, 1-{1-[6-Amino-5-(methoxyimino-methyl)-pyrimidin-4-yl]-piperidin-4-yl}-3-(4-morpholin-4-yl-phenyl)-urea] | 292 nM |
| CO/N=C/c1c(N)ncnc1N1CCC(NC(=O)Nc2ccc(OC3CCC3)nc2)CC1 [Number 15, 1-{1-[6-Amino-5-(methoxyimino-methyl)-pyrimidin-4-yl]-piperidin-4-yl}-3-(6-cyclobutoxy-pyridin-3-yl)-urea] | 195 nM |
| CO/N=C/c1c(N)ncnc1N1CCC(NC(=O)Nc2ccc(C3CCCCC3)cc2)C1 (centres unmarked) [Number 17, 1-{1-[6-Amino-5-(methoxyimino-methyl)-pyrimidin-4-yl]-pyrrolidin-3-yl}-3-(4-cyclohexyl-phenyl)-urea] | 299 nM |
| CO/N=C/c1c(N)ncnc1N1CCC(NC(=O)Nc2ccc(Cl)cc2)C1 (centres unmarked) [Number 18, 1-{1-[6-Amino-5-(methoxyimino-methyl)-pyrimidin-4-yl]-pyrrolidin-3-yl}-3-(4-chloro-phenyl)-urea] | 309 nM |
| CO/N=C/c1c(N)ncnc1N1CCC(NC(=O)Nc2ccc(Oc3ccccc3)cc2)C1 (centres unmarked) [Number 19, 1-{1-[6-Amino-5-(methoxyimino-methyl)-pyrimidin-4-yl]-pyrrolidin-3-yl}-3-(4-phenoxy-phenyl)-urea] | 134 nM |
| CO/N=C/c1c(N)ncnc1N1CCC(NC(=O)Nc2ccc(N3CCCC3)cc2)C1 (centres unmarked) [Number 20, 1-{1-[6-Amino-5-(methoxyimino-methyl)-pyrimidin-4-yl]-pyrrolidin-3-yl}-3-(4-pyrrolidin-1-yl-phenyl)-urea] | 299 nM |
| CO/N=C/c1c(N)ncnc1N1CCC(NC(=O)Nc2ccc(OC3CCCC3)nc2)C1 (centres unmarked) [Number 21, 1-{1-[6-Amino-5-(methoxyimino-methyl)-pyrimidin-4-yl]-pyrrolidin-3-yl}-3-(6-cyclopentyloxy-pyridin-3-yl)-urea] | 99 nM |
| CO/N=C/c1c(N)ncnc1N1CCC(NC(=O)Nc2ccc(C3CCCCC3)cc2)CC1 [Number 22, 1-{1-[6-Amino-5-(methoxyimino-methyl)-pyrimidin-4-yl]-piperidin-4-yl}-3-(4-cyclohexyl-phenyl)-urea] | 40 nM |
| CO/N=C/c1c(N)ncnc1N1CCC(NC(=O)Nc2ccc(OC3CCCC3)nc2)CC1 [Number 23, 1-{1-[6-Amino-5-(methoxyimino-methyl)-pyrimidin-4-yl]-piperidin-4-yl}-3-(6-cyclopentyloxy-pyridin-3-yl)-urea] | 35 nM |
| CO/N=C/c1c(N)ncnc1N1CCC(NC(=O)Nc2ccc(Cl)cc2)CC1 [Number 25, 1-{1-[6-Amino-5-(methoxyimino-methyl)-pyrimidin-4-yl]-piperidin-4-yl}-3-(4-chloro-phenyl)-urea] | 78 nM |
| CO/N=C/c1c(N)ncnc1N1CCC(NC(=O)Nc2ccc(Oc3ccccc3)cc2)CC1 [Number 26, 1-{1-[6-Amino-5-(methoxyimino-methyl)-pyrimidin-4-yl]-piperidin-4-yl}-3-(4-phenoxy-phenyl)-urea] | 175 nM |
